Source: patent US12419824B2, “Compounds useful for the treatment and/or care of the skin, hair, nails and/or mucous membranes” (Lubrizol Advanced Materials, Inc., priority 2019, dated 2025)

Columns and labels:
[1] = system: Muscle bind like protein 1 (MBNL1); assay: MBNL1 quantification in human dermal fibroblasts by immunofluorescence (Example 8); type: cell-based; settings: HDF, 1, 0.5 and 0.01 mg/ml, 24 hours, nuclear fluorescence normalized by nuclei
Experimental: MBNL1 induction by the peptides of the invention is evaluated by an Immunofluorescence assay. The aim of this study is to investigate the capacity of peptide candidates to increase MBNL1 in human dermal fibroblasts (HDF).
HDF (Cascade) are seeded in 96-well plates at a density of 8×10^3 cells/well in Fibroblast Growth Medium (Promocell). After 48 hours incubation, medium is removed and fresh medium with 1, 0.5 and 0.01 mg/ml of test items is added. Treatment is continued for 24 hours and non-treated cells are used as basal control. After 24 hours of treatment, an immunofluorescence is performed. Cells are fixed 15 minutes with 4% Paraformaldehide (Sigma), permeated 15 minutes with 1% Triton X-100 (Sigma) and then blocked with 5% Bovine Serum Albumin (Sigma). Next, primary antibody Anti-MBNL1 Rabbit (Sigma) is added and incubated for 2 hours. After that, secondary antibody Alexa Fluor™ 488 goat anti-rabbit IgG (Life Technologies) is added and incubated for 1 hour. To stain nuclei, Hoechst (Life Technologies) is added and incubated for 10 minutes. Finally, MBNL1 cell nuclei fluorescence intensity and nuclei number are measured by Operetta™ (Perkin Elmer). Fluorescence is normalized by cell nuclei and results are represented respect to basal control.

[2] = system: human subcutaneous pre-adipocytes; assay: Lipid accumulation in human subcutaneous pre-adipocytes, Adipored staining (Example 13); type: cell-based; settings: coculture of young and old pre-adipocytes, 0.01 mg/ml, 12 days
From the text: The aim of this study is to investigate the capacity of peptide candidates to induce lipid accumulation in human subcutaneous adipocytes, and therefore prevent adipocytes senescence. Measurement of lipid accumulation in a coculture of young and old adipose cells indirectly evaluates the inhibition of senescence-associated secretory phenotype (SASP). A pool of old adipose cells has a higher number of senescent cells. When cocultured with young cells, lipid accumulation observed is below the theoretically expected levels due to senescence induction effect of SASP on young adipocytes.
Induction of lipid accumulation by the peptides of the invention is evaluated by lipid fluorescent staining with Adipored® Assay Reagent. Human subcutaneous pre-adipocytes (donors, Cell applications) cells are cocultured in 96-well plates at a density of 4×10^3 cells/well each age in Human Preadipocyte Growth Medium (Sigma). Monoculture of each age are seeded at a density of 8×10^3 cells/well as age lipid accumulation controls. After 24 hours incubation, differentiation of pre-adipocytes into adipocytes is induced by changing medium to fresh Human Preadipocyte Differentiation Medium (Promocell). […] Finally, fluorescence intensity and nuclei number are measured by Operetta™ (Perkin Elmer). Fluorescence is normalized by cell nuclei and results are represented respect to cocultured basal control.

Substance | MBNL1 levels compared to the basal control [1] | lipid accumulation compared to basal control and old control [2]
Ac-Asp-Val-Tyr-Lys-NH2 (Ac-DVYK-NH2) [PEP1] | increase MBNL1 levels | increase lipid accumulation in adipocytes
H-Ala-Leu-Lys-Pro-Asn-Thr-NH2 (H-ALKPNT-NH2) [PEP2] | increase MBNL1 levels | increase lipid accumulation in adipocytes
